Measured values taken from publication PMC10244169, “Psychedelics promote plasticity by directly binding to BDNF receptor TrkB” (Nature Neuroscience, 2023).

Key:
GFP-tagged TrkA.TM = test: Microscale thermophoresis (MST) in HEK293T lysates; type: binding
Description: (§1) MST experiments were performed using the Monolith NT.115 (Blue/Red) instrument (NanoTemper Technologies). Lysates of HEK293T cells expressing GFP-tagged TrkB (WT, Y433F, TrkA.TM) were lysed, vortexed, sonicated and centrifuged 24 h after transient transfection and used as a source of fluorescently labeled TrkB, similarly to previously described protocols[11],[45]–[47]. The advantage of this approach is the possibility of studying the proteins in close-to-native conditions. However, the presence of other proteins, lipids, nucleic acids and other components of crude cell lysates can alter the diffusion of biomolecules and therefore binding affinities. High viscosity and background signal typically results in the affinity values being orders of magnitude […] than those of more traditional binding assays. […] The measurements were performed in premium coated capillaries (NanoTemper Technologies, MO-K025) using a LED source with 470 nm and 50% infrared-laser power at 25 °C. Analysis was performed using MO Affinity Analysis 2.3. Results were fitted to specific binding with Hill slope equations from GraphPad Prism 9.2.

GFP-tagged TrkB Y433F = biological target: T1, GFP-tagged TrkB Y433F (Rattus norvegicus, UniProt Q63604, Y433F); test: Microscale thermophoresis (MST) in HEK293T lysates; type: binding; conditions: for Bmax (best-fit, 1c/1d) / h (best-fit, 1c/1d): MST Y433F; for binding by MST: Y433F
T1 construct: expressed in transfected cells; host or cells: HEK293T
Description: as §1

eGFP-tagged TrkB (WT) = biological target: T2, eGFP-tagged TrkB (WT) (Rattus norvegicus, UniProt Q63604); test: Microscale thermophoresis (MST) in HEK293T lysates; type: binding; conditions: for h (best-fit, 1c/1d) / Bmax (best-fit, 1c/1d): MST WT; for Bmax (best-fit, 1c/1d): fit ambiguous; for binding by MST: native (WT) TrkB
T2 construct: expressed in transfected cells; host or cells: HEK293T
Description: as §1

[1] = biological target: T3, WT:Y433F heterodimers (Y433F^+/−) (Rattus norvegicus, UniProt Q63604, Y433F); test: Split-luciferase PCA of TrkB dimerization in N2a cells; type: cell-based; conditions: for TrkB dimerization time course, group mean (time 0 = 100): TRKB.Y433F; for TrkB dimerization: WT:Y433F heterodimers; for TrkB dimerization (PCA), group mean (vehicle = 100): Y433F+/-
T3 construct: expressed in transfected cells; host or cells: N2a
In short: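 N2a cells transiently co-transfected with split hGLuc-tagged rat TrkB pairs (WT/WT or Y433F/WT) for dimerization; Ketanserin, M100907 or TRKB.FC added 10 min before treatment. Luminescence read after injection of native coelenterazine ([…] final).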

TrkB(WT):Fyn = biological target: T4, TrkB(WT):Fyn (Rattus norvegicus, UniProt Q63604); test: PCA of TrkB interaction with lipid raft Fyn in N2a cells; type: cell-based
T4 construct: expressed in transfected cells; host or cells: N2a
Description: (§2) Ketanserin, M100907 and TRKB.FC were added to the media 10 min before treatment. The PCA method was performed as previously described[11],[75],[76]. Split humanized Gaussia princeps luciferase (hGLuc) was cloned on the C-terminus of the reporter proteins TrkB (WT and Y433F) and lipid raft Fyn. If the reporter proteins that carry complementary halves of the luciferase interact, the enzyme can refold in its functional conformation and, upon addition of its substrate, produce luminescence proportionally to the amount of reporter proteins interacting at a given time. N2a cells were seeded in 96-well plates with opaque walls and transparent bottom (PerkinElmer, ViewPlate 96). Cells were transfected with Lipofectamine 2000 according to the manufacturer’s instructions 24 h post-plating with the PCA pair plasmids: phGLuc(1C)-TrkB(WT) or the mutant phGLuc(1C)-TrkB(Y433F) and phGLuc(2 C)-TrkB(WT) for the dimerization experiments; phGLuc(1C)-lipid raft Fyn and phGLuc(2C)-TrkB(WT) or phGLuc(2C)-TrkB(Y433F) for the lipid raft localization experiments. Forty-eight hours post transfection, cells were treated (40 min, 37 °C) in phenol red-free Dulbecco’s modified Eagle medium without serum. […] The PCA signal was detected with the substrate for the luciferase, native coelenterazine, which was injected into each well directly in the plate reader at a final concentration of […]. One data point was excluded from Fig. 4b by applying Grubb’s method for outlier detection test, which detected it as a significant outlier.

TrkB(Y433F):Fyn = biological target: T5, TrkB(Y433F):Fyn (Rattus norvegicus, UniProt Q63604, Y433F); test: as above; type: cell-based; conditions: Y433F^+/− dimers
T5 construct: expressed in transfected cells; host or cells: N2a
Description: as §2

T3 sequence (Q63604 32-821 Y433F): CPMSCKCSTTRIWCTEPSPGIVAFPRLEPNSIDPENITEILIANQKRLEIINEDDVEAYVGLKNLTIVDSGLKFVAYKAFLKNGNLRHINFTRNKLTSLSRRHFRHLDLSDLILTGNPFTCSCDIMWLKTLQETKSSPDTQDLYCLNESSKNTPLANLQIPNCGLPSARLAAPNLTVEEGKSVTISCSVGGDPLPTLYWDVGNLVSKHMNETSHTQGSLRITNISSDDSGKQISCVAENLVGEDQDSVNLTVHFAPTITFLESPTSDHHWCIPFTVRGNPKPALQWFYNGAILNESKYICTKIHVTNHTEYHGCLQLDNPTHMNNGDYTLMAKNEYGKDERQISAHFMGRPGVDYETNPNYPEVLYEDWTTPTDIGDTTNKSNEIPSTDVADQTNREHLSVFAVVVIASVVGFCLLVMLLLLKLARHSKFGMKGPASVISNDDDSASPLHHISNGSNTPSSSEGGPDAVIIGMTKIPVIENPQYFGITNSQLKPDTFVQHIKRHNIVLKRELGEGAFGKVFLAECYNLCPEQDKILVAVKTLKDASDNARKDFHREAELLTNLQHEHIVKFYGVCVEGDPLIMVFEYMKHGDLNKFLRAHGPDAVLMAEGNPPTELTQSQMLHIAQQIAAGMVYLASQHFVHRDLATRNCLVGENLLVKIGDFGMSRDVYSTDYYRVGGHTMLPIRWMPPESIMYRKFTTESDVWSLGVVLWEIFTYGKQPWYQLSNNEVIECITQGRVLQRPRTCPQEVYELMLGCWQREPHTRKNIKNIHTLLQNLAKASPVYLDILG
T3 sequence (Q63604 32-821, stated change not applied): as the sequence (Q63604 32-821 Y433F) above, with F402Y counted along it
T1 sequence (Q63604 32-821 Y433F): as the sequence (Q63604 32-821 Y433F) above
T2 sequence (Q63604 32-821): as the sequence (Q63604 32-821 Y433F) above, with F402Y counted along it
T5 sequence (Q63604 32-821 Y433F): as the sequence (Q63604 32-821 Y433F) above
T4 sequence (Q63604 32-821): as the sequence (Q63604 32-821 Y433F) above, with F402Y counted along it

SMILES: CCN(CC)C(=O)C1C=C2c3cccc4[nH]cc(c34)CC2N(C)C1 (centres unmarked) [LSD, lysergic acid diethylamide]
- Bmax (best-fit, 1c/1d) (GFP-tagged TrkA.TM): ~ 12873
- h (best-fit, 1c/1d) (GFP-tagged TrkA.TM): 1.641
- Bmax (best-fit, 1c/1d) (GFP-tagged TrkB Y433F): ~ 430.4
- h (best-fit, 1c/1d) (GFP-tagged TrkB Y433F): 1.157
- binding by MST (GFP-tagged TrkB Y433F): but not to Y433F
- h (best-fit, 1c/1d) (eGFP-tagged TrkB (WT)): 0.8476
- Bmax (best-fit, 1c/1d) (eGFP-tagged TrkB (WT)): ~ 566372
- binding by MST (eGFP-tagged TrkB (WT)): directly bind to native TrkB
- TrkB dimerization time course, group mean (time 0 = 100) ([1]; time 15): 129.4
- TrkB dimerization time course, group mean (time 0 = 100) ([1]; time 60): 136.7
- TrkB dimerization time course, group mean (time 0 = 100) ([1]; time 120): 108.3
- TrkB dimerization time course, group mean (time 0 = 100) ([1]; time 240): 108.9
- TrkB dimerization time course, group mean (time 0 = 100) ([1]; time 480): 60.33
- TrkB dimerization [1]: this effect is abolished
- TrkB dimerization (PCA), group mean (vehicle = 100) ([1]; 1nM): 113.3
- TrkB dimerization (PCA), group mean (vehicle = 100) ([1]; 10nM): 121
- TrkB dimerization (PCA), group mean (vehicle = 100) ([1]; 100nM): 118.1
- TrkB dimerization (PCA), group mean (vehicle = 100) ([1]; 1uM): 109.7
- TrkB interaction with Fyn (TrkB(WT):Fyn): increase TrkB interaction with lipid raft-restricted Fyn
- TrkB interaction with Fyn (TrkB(Y433F):Fyn): this effect is lost

SMILES: CN(C)CCc1c[nH]c2cccc(O)c12 [PSI, psilocin]
- Bmax (best-fit, 1c/1d) (GFP-tagged TrkA.TM): 151.3
- h (best-fit, 1c/1d) (GFP-tagged TrkA.TM): 1.115
- Bmax (best-fit, 1c/1d) (GFP-tagged TrkB Y433F): 49.04
- h (best-fit, 1c/1d) (GFP-tagged TrkB Y433F): 1.151
- binding by MST (GFP-tagged TrkB Y433F): but not to Y433F
- h (best-fit, 1c/1d) (eGFP-tagged TrkB (WT)): 0.8209
- Bmax (best-fit, 1c/1d) (eGFP-tagged TrkB (WT)): ~ 268422
- binding by MST (eGFP-tagged TrkB (WT)): directly bind to native TrkB
- TrkB dimerization [1]: this effect is abolished
- TrkB dimerization (PCA), group mean (vehicle = 100) ([1]; 1nM): 110.2
- TrkB dimerization (PCA), group mean (vehicle = 100) ([1]; 10nM): 90.04
- TrkB dimerization (PCA), group mean (vehicle = 100) ([1]; 100nM): 84.39
- TrkB dimerization (PCA), group mean (vehicle = 100) ([1]; 1uM): 73.58
- TrkB interaction with Fyn (TrkB(WT):Fyn): increase TrkB interaction with lipid raft-restricted Fyn
- TrkB interaction with Fyn (TrkB(Y433F):Fyn): this effect is lost
